Laboratory results reported in PubChem BioAssay (NCI).
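Exposure lasted 48 hours, with cells grown in 96-well plates and compounds tested at five concentrations. GI50 marks 50% less growth. At the TGI there is no net growth.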

Legend:
Experiment in all cases: DTP human tumour cell line panel, 48 h
PC-3 prostate = tested on: PC-3 prostate
SK-MEL-2 melanoma = tested on: SK-MEL-2 melanoma
HL-60(TB) leukemia = tested on: HL-60(TB) leukemia
SK-MEL-28 melanoma = tested on: SK-MEL-28 melanoma
HCT-116 colon = tested on: HCT-116 colon
COLO 205 colon = tested on: COLO 205 colon
UACC-62 melanoma = tested on: UACC-62 melanoma
NCI-H522 lung = tested on: NCI-H522 lung
MDA-MB-435 = tested on: MDA-MB-435
OVCAR-3 ovarian = tested on: OVCAR-3 ovarian

Compound: Clc1ccc(Nc2ncnc3c2sc2ncccc23)c(Cl)c1
- GI50 (PC-3 prostate): 2.72 µM
- TGI (PC-3 prostate): > 100 µM
- GI50 (SK-MEL-2 melanoma): 30.7 µM
- TGI (SK-MEL-2 melanoma): > 100 µM
- GI50 (HL-60(TB) leukemia): < 0.0137 µM
- TGI (HL-60(TB) leukemia): > 100 µM
- GI50 (SK-MEL-28 melanoma): 6.39 µM
- TGI (SK-MEL-28 melanoma): > 100 µM
- GI50 (HCT-116 colon): < 0.01 µM
- TGI (HCT-116 colon): > 100 µM
- GI50 (COLO 205 colon): 0.0573 µM
- TGI (COLO 205 colon): > 25.8 µM
- GI50 (UACC-62 melanoma): 0.0279 µM
- TGI (UACC-62 melanoma): 8.37 µM
- GI50 (NCI-H522 lung): < 0.0122 µM
- TGI (NCI-H522 lung): > 100 µM
- GI50 (MDA-MB-435): 0.0482 µM
- TGI (MDA-MB-435): > 100 µM
- GI50 (OVCAR-3 ovarian): 1 µM
- TGI (OVCAR-3 ovarian): > 100 µM

Compound: COC(=O)[C@H](C)[C@@H]1CC[C@](C)(CCC2=C(C)CCCC2(C)C)OO1
- TGI (PC-3 prostate): > 25 µM
- TGI (SK-MEL-2 melanoma): > 25 µM
- TGI (HL-60(TB) leukemia): > 25 µM
- TGI (SK-MEL-28 melanoma): > 25 µM
- TGI (HCT-116 colon): > 25 µM
- TGI (COLO 205 colon): > 25 µM
- TGI (UACC-62 melanoma): > 25 µM
- TGI (NCI-H522 lung): > 25 µM
- TGI (MDA-MB-435): > 25 µM
- TGI (OVCAR-3 ovarian): > 25 µM

Compound: Nc1nc(Cl)nc2c1ncn2C1OC(CO)C(O)C1O (stereo not given)
- GI50 (PC-3 prostate): > 100 µM
- TGI (PC-3 prostate): > 100 µM
- GI50 (SK-MEL-2 melanoma): > 100 µM
- TGI (SK-MEL-2 melanoma): > 100 µM
- GI50 (HL-60(TB) leukemia): 0.374 µM
- TGI (HL-60(TB) leukemia): > 93.6 µM
- GI50 (SK-MEL-28 melanoma): > 100 µM
- TGI (SK-MEL-28 melanoma): > 100 µM
- GI50 (HCT-116 colon): 4.23 µM
- TGI (HCT-116 colon): > 100 µM
- GI50 (COLO 205 colon): 5.76 µM
- TGI (COLO 205 colon): > 100 µM
- GI50 (UACC-62 melanoma): 5.7 µM
- TGI (UACC-62 melanoma): > 100 µM
- GI50 (NCI-H522 lung): > 100 µM
- TGI (NCI-H522 lung): > 100 µM
- GI50 (MDA-MB-435): 3.01 µM
- TGI (MDA-MB-435): > 100 µM
- GI50 (OVCAR-3 ovarian): > 100 µM
- TGI (OVCAR-3 ovarian): > 100 µM

Compound: [Au+].c1c[n-]cn1.c1ccc([PH+](c2ccccc2)c2ccccc2)cc1
- GI50 (PC-3 prostate): 4.28 µM
- TGI (PC-3 prostate): 17.3 µM
- GI50 (SK-MEL-2 melanoma): 2.53 µM
- TGI (SK-MEL-2 melanoma): 8.06 µM
- GI50 (HL-60(TB) leukemia): 1.66 µM
- TGI (HL-60(TB) leukemia): 4.81 µM
- GI50 (SK-MEL-28 melanoma): 2.29 µM
- TGI (SK-MEL-28 melanoma): 6.87 µM
- GI50 (HCT-116 colon): 5.19 µM
- TGI (HCT-116 colon): 14.6 µM
- GI50 (COLO 205 colon): 1.99 µM
- TGI (COLO 205 colon): 4.07 µM
- GI50 (UACC-62 melanoma): 5.17 µM
- TGI (UACC-62 melanoma): 29.2 µM
- GI50 (NCI-H522 lung): 1.19 µM
- TGI (NCI-H522 lung): 2.93 µM
- GI50 (MDA-MB-435): 5.17 µM
- TGI (MDA-MB-435): 23.1 µM
- GI50 (OVCAR-3 ovarian): 2.43 µM
- TGI (OVCAR-3 ovarian): 5.2 µM

Compound: CCN(CC)CC(O)c1cc(-c2ccc(Cl)cc2)nc2cc(Cl)ccc12 (stereo not given)
- GI50 (PC-3 prostate): 2.08 µM
- TGI (PC-3 prostate): 5.98 µM
- GI50 (SK-MEL-2 melanoma): 1.92 µM
- TGI (SK-MEL-2 melanoma): 3.63 µM
- GI50 (HL-60(TB) leukemia): 2.02 µM
- TGI (HL-60(TB) leukemia): 3.74 µM
- GI50 (SK-MEL-28 melanoma): 1.76 µM
- TGI (SK-MEL-28 melanoma): 3.21 µM
- GI50 (HCT-116 colon): 1.65 µM
- TGI (HCT-116 colon): 3.15 µM
- GI50 (COLO 205 colon): 1.65 µM
- TGI (COLO 205 colon): 3.34 µM
- GI50 (UACC-62 melanoma): 1.62 µM
- TGI (UACC-62 melanoma): 3.1 µM
- GI50 (NCI-H522 lung): 1.62 µM
- TGI (NCI-H522 lung): 3.14 µM
- GI50 (MDA-MB-435): 1.71 µM
- TGI (MDA-MB-435): 3.32 µM
- GI50 (OVCAR-3 ovarian): 1.92 µM
- TGI (OVCAR-3 ovarian): 4.05 µM

Compound: CN1c2ccccc2S(=O)(=O)n2c(COc3ccccc3)nnc21
- TGI (PC-3 prostate): > 100 µM
- TGI (SK-MEL-2 melanoma): > 100 µM
- TGI (HL-60(TB) leukemia): > 100 µM
- TGI (SK-MEL-28 melanoma): > 100 µM
- TGI (HCT-116 colon): > 100 µM
- TGI (COLO 205 colon): > 100 µM
- TGI (UACC-62 melanoma): > 100 µM
- TGI (NCI-H522 lung): > 100 µM
- TGI (MDA-MB-435): > 100 µM
- TGI (OVCAR-3 ovarian): > 100 µM

Compound: O=C(Nc1ccc(Cl)cc1)c1cc2ccccc2cc1OP(=O)(O)O
- GI50 (PC-3 prostate): 2.92 µM
- TGI (PC-3 prostate): > 100 µM
- GI50 (SK-MEL-2 melanoma): 3.58 µM
- TGI (SK-MEL-2 melanoma): 24.4 µM
- GI50 (HL-60(TB) leukemia): > 100 µM
- TGI (HL-60(TB) leukemia): > 100 µM
- GI50 (SK-MEL-28 melanoma): 4.88 µM
- TGI (SK-MEL-28 melanoma): 55.3 µM
- GI50 (HCT-116 colon): 3 µM
- TGI (HCT-116 colon): 11.9 µM
- GI50 (COLO 205 colon): 14.5 µM
- TGI (COLO 205 colon): 27.8 µM
- GI50 (UACC-62 melanoma): 2.66 µM
- TGI (UACC-62 melanoma): > 100 µM
- GI50 (NCI-H522 lung): 3.29 µM
- TGI (NCI-H522 lung): 38.1 µM
- GI50 (MDA-MB-435): 3.27 µM
- TGI (MDA-MB-435): 32.3 µM
- GI50 (OVCAR-3 ovarian): 3.22 µM
- TGI (OVCAR-3 ovarian): 11.2 µM

Compound: O=C(NCCCl)NCc1ccccc1
- TGI (PC-3 prostate): > 100 µM
- TGI (SK-MEL-2 melanoma): > 100 µM
- TGI (HL-60(TB) leukemia): > 100 µM
- TGI (SK-MEL-28 melanoma): > 100 µM
- TGI (HCT-116 colon): > 100 µM
- TGI (COLO 205 colon): > 100 µM
- TGI (UACC-62 melanoma): > 100 µM
- TGI (NCI-H522 lung): > 100 µM
- TGI (MDA-MB-435): > 100 µM
- TGI (OVCAR-3 ovarian): > 100 µM

Compound: CCC1OC(=O)CC(O)C(C)C(OC2OC(C)CC(N(C)C)C2O)C(CC=O)CC(C)C(=O)/C=C/C2(C)OC2C1C (stereo not given)
- TGI (PC-3 prostate): > 100 µM
- TGI (SK-MEL-2 melanoma): > 100 µM
- TGI (HL-60(TB) leukemia): 32.4 µM
- TGI (SK-MEL-28 melanoma): 42.3 µM
- TGI (HCT-116 colon): 31.6 µM
- TGI (COLO 205 colon): 32.2 µM
- TGI (UACC-62 melanoma): 28.9 µM
- TGI (NCI-H522 lung): 54.9 µM
- TGI (MDA-MB-435): 40.3 µM
- TGI (OVCAR-3 ovarian): 59.1 µM
